Reference: paper PMC9181938, “Fluorinated Analogues of Lepidilines A and C: Synthesis and Screening of Their Anticancer and Antiviral Activity” (Molecules, 2022)
Where two headings read alike, the source gives them in different places.

Assays:
[1] = Cytotoxicity screening at 10 µM (MTT); assay type: cell-based, Macaca mulatta; settings: Macaca mulatta, LLC-MK2 cells, read-out: Cell line (viability %) LLC-MK2
NCTC clone 929 cells = assay: Cytotoxicity screening at 10 µM (MTT); assay type: cell-based, Mus musculus; settings: 48 h
[2] = Cytotoxicity screening at 10 µM (MTT); assay type: cell-based, Human; settings: human, MRC-5 cells, read-out: Cell line (viability %) MRC-5
[3] = tested on: Human parainfluenza virus type 3 (HPIV-3); assay: Antiviral activity assay (0.1–1000 µM), IC50; assay type: cell-based
Description: (§1) Antiviral properties of compounds 1e–1g, 1e[PF6], 8a–8d, and 9a were assessed against five viruses: Human herpesvirus 1 (HSV-1, VR-539), Human parainfluenza virus type 3 (HPIV-3, VR-93), Human adenovirus 5 (AdV5, VR-5), Human herpesvirus 5 (HCMV, VR-977), and Encephalomyocarditis virus (EMCV, VR-1479). Viruses were purchased from the American Type Culture Collection (ATCC, Manassas, VA, USA).
(§2) All tested compounds were dissolved in DMSO (dimethyl sulfoxide, Sigma-Aldrich, Darmstadt, Germany) and then suspended in Minimum Essential Medium (MEM; Sigma-Aldrich, Darmstadt, Germany) supplemented with 2% heat-inactivated fetal bovine serum (FBS; Sigma-Aldrich, Darmstadt, Germany), 2 mM L-glutamine (Sigma-Aldrich, Darmstadt, Germany), and 100 units/mL penicillin G with […] streptomycin (Sigma-Aldrich, Darmstadt, Germany).
(§3) Investigated cells were propagated in Minimum Essential Medium (MEM; Sigma-Aldrich, Darmstadt, Germany) supplemented with 10% heat-inactivated fetal bovine serum (FBS; Sigma-Aldrich, Darmstadt, Germany) and 100 units/mL penicillin G with […] streptomycin (Sigma-Aldrich, Darmstadt, Germany). After reaching 80–90% confluency, cells were harvested with trypsin (Life Technologies, Warsaw, Poland) and seeded into 96-well microplates at 2 × 10^5 cells/mL after overnight incubation of cells at 37 °C in a humidified atmosphere containing 5% CO2.
(§4) The culture medium was removed from confluent cells grown in 96-well microplates, and the cells were inoculated with virus solutions in MEM supplemented with 2% FBS and antibiotics (HSV-1 MOI 0.005, 1000 virions/mL; HPIV-3 MOI 0.01, 2000 virions/mL; AdV5 MOI 0.005, 1000 virions/mL; EMCV 0.005, 1000 virions/mL; HCMV 20 PFU/well (plaque-forming units per well). After a 1-h (HSV-1, HPIV-3, AdV5, and EMCV) or 2-h adsorption period (HCMV), residual viral particles were removed, and infected cells were further incubated with MEM supplemented with 2% FBS containing compound concentrations in the range from 0.1 to 1000 µM [38]. All experiments were carried out in triplicate. The cell monolayers were incubated with the investigated compounds at 37 °C in a humidified atmosphere containing 5% CO2 until a cytopathic effect (CPE) was visible. Viral infection was evaluated by the MTT assay (as described previously) or plaque reduction assay. HCMV plaques were counted under an inverted microscope, Olympus IX73 (Olympus, Tokyo, Japan). Antiviral activity was expressed as the concentration required to reduce the number of viral plaques to 50% of the control (virus-infected but untreated).

[4] = Cytotoxicity MTT assay (0.1–1000 µM), CC50; assay type: cell-based, Macaca mulatta; settings: Macaca mulatta, LLC-MK2 cells, LLC-MK2, MTT, 48 h; read-out: CC50 Normal Cell Lines LLC-MK2
LLC-MK2 cells [5] = assay: Cytotoxicity MTT assay (0.1–1000 µM), CC50; assay type: cell-based, Macaca mulatta; settings: Table S2, range 0.1-1000 µM, LLC-MK2; read-out: Cell line (CC50 M) LLC-MK2
[6] = tested on: Human parainfluenza virus type 3 (HPIV-3); assay: Antiviral screening at 10 µM; assay type: cell-based; settings: HPIV-3-infected cells
Description: (§5) Antiviral properties of compounds 1a, 1c, 1a[PF6], 1c[PF6], 9b[PF6], 9c[PF6], 10a–10d, 2a, and 2b were assessed against five viruses: Human herpesvirus 1 (HSV-1, VR-539), Human parainfluenza virus type 3 (HPIV-3, VR-93), Human adenovirus 5 (AdV5, VR-5), Human herpesvirus 5 (HCMV, VR-977), and Encephalomyocarditis virus (EMCV, VR-1479). Viruses were purchased from the American Type Culture Collection (ATCC, Manassas, VA, USA).
as §2
(§6) Vero, LLC-MK2, NCTC clone 929, MRC-5, and HeLa cells were propagated in Minimum Essential Medium (MEM; Sigma-Aldrich, Darmstadt, Germany) supplemented with 10% heat-inactivated fetal bovine serum (FBS; Sigma-Aldrich, Darmstadt, Germany) and 100 units/mL penicillin G with […] streptomycin (Sigma-Aldrich, Darmstadt, Germany). Upon reaching 80–90% confluency, cells were harvested with 0.25% trypsin in 1 mM EDTA (Life Technologies, Warsaw, Poland) and seeded onto 96-well microplates at 2 × 10^5 cells/mL. After overnight incubation of cells at 37 °C in a humidified atmosphere containing 5% CO2, the culture medium was removed, and cells were inoculated with the respective virus solution in MEM supplemented with 2% FBS and antibiotics (HSV-1 MOI 0.005, 1000 virions/mL; HPIV-3 MOI 0.01, 2000 virions/mL; AdV5 MOI 0.005, 1000 virions/mL, EMCV MOI 0.005, 1000 virions/mL, HCMV 20 PFU (plaque forming units) per well). After a 1-h (HSV-1, HPIV-3, AdV5, and EMCV) or 2-h adsorption period (HCMV), the residual virus was removed, and the infected cells were further incubated with a 100 μL freshly prepared solution of tested compounds diluted with a maintenance medium supplemented with 2% FBS to obtain compound concentrations of 10 µM. The final concentration of DMSO in the medium was 0.1%. All experiments were carried out in triplicate. The cells monolayers were incubated with the compounds at 37 °C in a humidified atmosphere containing 5% CO2 until the typical cytopathic effect (CPE) was visible. Viral infection was evaluated by the MTT assay or plaque reduction assay (HCMV). After incubation with drugs, the cells were treated with 3-(4,5-dimethylthiazol-2-yl)-2,5-diphenyltetrazolium bromide dye solution (MTT, Sigma-Aldrich, Darmstadt, Germany) (25 μL, 5 mg/mL) for 2 h and lysed with solvent solution (100 μL) containing: DMF (Sigma-Aldrich, Darmstadt, Germany) (45 mL), SDS (Sigma-Aldrich, Darmstadt, Germany) (13.5 g), and distilled water (55 mL). After overnight incubation at 37 °C, the optical density at 550 nm and a reference wavelength of 670 nm were measured on a microplate spectrophotometer, Varioskan Lux (Thermo Fisher Scientific, Waltham, MA, USA). The number of HCMV plaques was counted under an inverted microscope Olympus IX73 (Olympus, Tokyo, Japan).

[7] = tested on: Human herpesvirus 1 (HSV-1); assay: Antiviral screening at 10 µM; assay type: cell-based; settings: HSV-1-infected cells
Description: as §5, §2, §6

[8] = tested on: Encephalomyocarditis virus (EMCV); assay: Antiviral screening at 10 µM; assay type: cell-based; settings: Cardiovirus A, EMCV-infected cells, read-out: Cell line (viability %) EMCV
Description: as §5, §2, §6

[9] = tested on: Human adenovirus 5 (AdV5); assay: Antiviral screening at 10 µM; assay type: cell-based; settings: AdV5-infected cells
Description: as §5, §2, §6

[10] = Cytotoxicity screening at 10 µM (MTT); assay type: cell-based, Cercopithecus aethiops; settings: Cercopithecus aethiops, Vero cells, read-out: Cell line (viability %) Vero
[11] = Cytotoxicity screening at 10 µM (MTT); assay type: cell-based, Human; settings: human, HeLa cells, read-out: Cell line (viability %) HeLa
LLC-MK2 cells [12] = assay: Cytotoxicity screening at 10 µM (MTT); assay type: cell-based, Macaca mulatta; settings: 48 h
[13] = Cytotoxicity screening at 10 µM (MTT); assay type: cell-based, Mus musculus; settings: Mus musculus, NCTC clone 929 cells, read-out: Cell line (viability %) NCTC clone 929
[14] = tested on: Human herpesvirus 1 (HSV-1); assay: Antiviral activity assay (0.1–1000 µM), IC50; assay type: cell-based; settings: Human alphaherpesvirus 1; HSV-1, MOI 0.005
Description: as §1, §2, §3, §4

[15] = tested on: Encephalomyocarditis virus (EMCV); assay: Antiviral activity assay (0.1–1000 µM), IC50; assay type: cell-based; settings: Cardiovirus A, MOI 0.005, read-out: IC50 EMCV
Description: as §1, §2, §3, §4

[16] = tested on: Human adenovirus 5 (AdV5); assay: Antiviral activity assay (0.1–1000 µM), IC50; assay type: cell-based; settings: Human mastadenovirus C; AdV5, MOI 0.005; read-out: IC50 AdV5
Description: as §1, §2, §3, §4

[17] = tested on: Human herpesvirus 5 (HCMV); assay: Antiviral activity assay (0.1–1000 µM), IC50, plaque reduction; assay type: cell-based; settings: Human betaherpesvirus 5, 20 PFU/well
Description: as §1, §2, §3, §4

[18] = Cytotoxicity MTT assay (0.1–1000 µM), CC50; assay type: cell-based, Cercopithecus aethiops; settings: Cercopithecus aethiops, Vero cells, read-out: CC50 Normal Cell Lines Vero
[19] = Cytotoxicity MTT assay (0.1–1000 µM), CC50; assay type: cell-based, Human; settings: human, HeLa cells, MTT, 48 h, read-out: CC50 Cancer Cell Lines HeLa
[20] = Cytotoxicity MTT assay (0.1–1000 µM), CC50; assay type: cell-based, Human; settings: human, A549 cells, read-out: CC50 Cancer Cell Lines A549
[21] = Cytotoxicity MTT assay (0.1–1000 µM), CC50; assay type: cell-based, Human; settings: human, HepG2 cells, read-out: CC50 Cancer Cell Lines HepG2
[22] = Cytotoxicity MTT assay (0.1–1000 µM), CC50; assay type: cell-based, Human; settings: human, MRC-5 cells, MRC-5, MTT, read-out: CC50 Normal Cell Lines MRC-5
[23] = Cytotoxicity MTT assay (0.1–1000 µM), CC50; assay type: cell-based, Mus musculus; settings: Mus musculus, NCTC clone 929 cells, NCTC clone 929, MTT, 48 h; read-out: CC50 Normal Cell Lines NCTC Clone 929
[24] = Table S4, range 0.1-1000 µM, HPIV-3, read-out: IC50 (M) HPIV-3
[25] = Human respirovirus 3, HPIV-3, MOI 0.01, read-out: IC50 HPIV-3

SMILES	viability at 48 h, 10 µM [2] [%]	IC50 [3, 24] [M]	CC50 at 48 h [4] [µM]	CC50 (LLC-MK2 cells [5]) [µM]	viability at 10 µM [8] [%]	viability at 48 h, 10 µM [10] [%]	viability at 48 h, 10 µM [11] [%]	IC50 [3, 25] [M]	IC50 [14] [µM]	IC50 [15] [µM]	IC50 [16] [µM]	IC50 [17] [µM]	melting point	CC50 at 48 h [18] [µM]	CC50 at 48 h [19] [µM]	CC50 at 48 h [20] [µM]	CC50 at 48 h [21] [µM]	CC50 at 48 h [22] [µM]	CC50 at 48 h [23] [µM]	other results
Cc1c(C)[n+](Cc2ccccc2)cn1Cc1ccccc1 [Compound 1a, lepidiline A, reference compound]	90.2	> 6.77e-05	< 80	67.7 ± 2.52	7.4	90.5	43	–	–	–	–	–	–	–	–	–	–	–	–	viability at 48 h, 10 µM [1]: 76.3%; Cell line (viability %) NCTC clone 929 (NCTC clone 929 cells): 86.0%; Cell line (viability %) HPIV-3 ([6]; antiviral screening): 86.0%; Cell line (viability %) HSV-1 ([7]; antiviral screening): 48.0%; Cell line (viability %) AdV5 [9]: 45.8%
COc1cccc(Cn2c[n+](Cc3ccccc3)c(C)c2C)c1 [Compound 1c, lepidiline C, reference compound]	76.7	> 2.83e-05	< 80	28.3 ± 5.86	7.7	90.7	8.9	–	–	–	–	–	–	–	–	–	–	–	–	Cell line (viability %) LLC-MK2 (LLC-MK2 cells [12]): 78.4%; viability at 48 h, 10 µM [13]: 8.8%; viability at 10 µM ([6]; Human respirovirus 3, antiviral screening, read-out: Cell line (viability %) HPIV-3): 90.4%; viability at 10 µM ([7]; Human alphaherpesvirus 1, antiviral screening, read-out: Cell line (viability %) HSV-1): 18.6%; viability at 10 µM ([9]; Human mastadenovirus C, read-out: Cell line (viability %) AdV5): 17.9%
Cc1c(C)[n+](OCc2ccccc2)cn1Cc1ccccc1C(F)(F)F.[Br-] [Compound 8c, 3-Benzyloxy-4,5-dimethyl-1-(2-(trifluoromethyl)benzyl)imidazolium bromide]	–	–	55 ± 1	–	–	–	–	> 5.5e-05	> 53.7	> 28.5	> 16	> 45.7	123 to 125 °C	53.7 ± 1.53	16 ± 1	7.37 ± 0.32	95 ± 1	45.7 ± 3.79	28.5 ± 0.5	–
Cc1c(C)[n+](OCc2ccccc2)cn1Cc1ccc(C(F)(F)F)cc1.[Br-] [Compound 8d, 3-Benzyloxy-4,5-dimethyl-1-[4-(trifluoromethyl)benzyl]imidazolium bromide]	–	–	7.5 ± 1	–	–	–	–	> 7.5e-06	> 229	> 283	> 5.5	> 59.7	180 to 182 °C (dec.)	229 ± 9.02	5.5 ± 0.5	5.07 ± 0.12	322 ± 5.77	59.7 ± 2.52	283 ± 10.4	–
